Experiments:
[1] = system: human cortical spheroids; test: MYRF+ oligodendrocytes in human cortical spheroids; format: cell-based; conditions: 30 nM from days 61-71, assayed on day 94, versus untreated
Method: Human cortical spheroids were generated as described in Madhavan et al, (Nature Methods, 15:700-706, 2018). In brief, spheroids were left untreated, or treated with Cis-N-cyclohexyl-N-ethyl-3-(3-chloro-4-cyclohexylphenyl)prop-2-enylamine (30 nM) from days 61-71 and assayed […] on day 94 for MyRF+ oligodendrocytes (Rabbit anti-MyRF antibody was generously provided by M. Wegner and used at 1:1000).
For patterning of neurocortical spheroids, pluripotent stem cell colonies cultured on vitronectin (Gibco; A14700) were lifted with dispase (Gibco; 17105-041) at 37° C. for 10 min. Intact colonies were transferred to individual low-adherence V-bottom 96-well plates (S-Bio Prime; MS-9096VZ) in 200 μl of spheroid starter media with 10 μM ROCK inhibitor Y-27632 (Calbiochem; 688001), 10 μM dorsopmorphin (Sigma; P5499), and 10 μM SB-431542 (Sigma; S4317). […]
Spheroids for immunohistochemistry were initially fixed with 4% ice-cold paraformaldehyde for 45 min, washed three times in PBS, and equilibrated with 30% sucrose overnight. […] Two fields from the top and bottom of the spheroid and two fields from the edges of the central region of the spheroids were quantified. […]

[2] = target: T1, human EBP (Homo sapiens, UniProt Q15125); test: Zymostenol level in human cortical spheroids (on-target EBP inhibition); format: cell-based; conditions: 100 nM, versus DMSO
T1 construct: endogenous in cells; host or cells: human cortical spheroids derived from pluripotent stem cells
T1 sequence (Q15125 whole entry): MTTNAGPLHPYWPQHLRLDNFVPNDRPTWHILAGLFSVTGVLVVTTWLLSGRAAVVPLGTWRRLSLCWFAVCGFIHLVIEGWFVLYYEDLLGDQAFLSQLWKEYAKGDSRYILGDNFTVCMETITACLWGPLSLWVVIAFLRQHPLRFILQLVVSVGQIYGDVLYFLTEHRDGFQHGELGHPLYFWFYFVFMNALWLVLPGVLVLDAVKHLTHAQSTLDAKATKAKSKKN

zymostenol in human cortical spheroid cells (FIG. 6) [2]: accumulation of EBP substrate zymostenol
SMILES: CCN(C/C=C\c1ccc(C2CCCCC2)c(Cl)c1)C1CCCCC1 [Cis-N-cyclohexyl-N-ethyl-3-(3-chloro-4-cyclohexylphenyl)prop-2-enylamine]
MYRF+ oligodendrocytes in human cortical spheroids [1]: selectively increase MYRF+ oligodendrocytes

Reference: patent US10918610B2, “Compounds and methods of promoting myelination” (Case Western Reserve University, priority 2017, dated 2021)
